Assay results published in the supplement of paper PMC10307832.

Key:
Assay in all cases: relative viability (nuclei count vs DMSO), 5 days (fraction); higher = more cells survive
[1] = compound: C(C(=O)C(=O)O)Br [Bromopyruvate] + C[C@@H](Oc1cc(-c2cnn(C3CCNCC3)c2)cnc1N)c1c(Cl)ccc(F)c1Cl [Crizotinib] (partner 1 µM)
Method in brief: (§1)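 Relative viability is defined as nuclei in treated wells over nuclei in vehicle wells. Duplicate plates were run and medians reported. Lung cancer cell lines in 1536-well plates were dosed by pin tool one day after seeding, with one drug or with a fixed anchor-drug dose plus five library-drug doses (not always all listed) in √10 steps, and nuclei were counted after 5 days.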

[2] = compound: C(C(=O)C(=O)O)Br [Bromopyruvate] + Nc1ncn([C@H]2C[C@H](O)[C@@H](CO)O2)c(=O)n1 [Decitabine] (partner 2 µM)
Method in brief: as §1

[3] = compound: CC(O)(CS(=O)(=O)c1ccc(F)cc1)C(=O)Nc1ccc(C#N)c(C(F)(F)F)c1 [Bicalutamide] + Cc1cc(Nc2cc(N3CCN(C)CC3)nc(Sc3ccc(NC(=O)C4CC4)cc3)n2)n[nH]1 [Tozasertib] (partner 0.1 µM)
Method in brief: as §1

[4] = compound: CC(O)(CS(=O)(=O)c1ccc(F)cc1)C(=O)Nc1ccc(C#N)c(C(F)(F)F)c1 [Bicalutamide] + O=C(CCCCCCC(=O)Nc1ccccc1)NO [Vorinostat] (partner 1 µM)
Method in brief: as §1

Row | Cell Line | relative viability ([1]; first compound 1 µM) | relative viability ([1]; first compound 3.162 µM) | relative viability ([1]; first compound 10 µM) | relative viability ([1]; first compound 31.62 µM) | relative viability ([1]; first compound 100 µM) | relative viability ([2]; first compound 1 µM) | relative viability ([2]; first compound 3.162 µM) | relative viability ([2]; first compound 10 µM) | relative viability ([2]; first compound 31.62 µM) | relative viability ([2]; first compound 100 µM) | relative viability ([3]; first compound 0.08 µM) | relative viability ([3]; first compound 0.253 µM) | relative viability ([3]; first compound 0.8 µM) | relative viability ([3]; first compound 2.53 µM) | relative viability ([4]; first compound 0.08 µM) | relative viability ([4]; first compound 0.253 µM) | relative viability ([4]; first compound 0.8 µM) | relative viability ([4]; first compound 2.53 µM)
1 | HCC-44 | 0.787 | 0.724 | 0.735 | 0.862 | 0.884 | 0.987 | 0.926 | 0.895 | 0.943 | 0.908 | 1.06 | 0.874 | 0.746 | 1.12 | 1.12 | 1.21 | 1.1 | 1.12
2 | HCC-827 | 0.939 | 0.919 | 0.931 | 0.999 | 0.964 | 0.356 | 0.295 | 0.305 | 0.331 | 0.266 | 0.403 | 0.341 | 0.402 | 0.402 | 0.921 | 0.639 | 1.15 | 0.815
3 | NCI-H1623 |  |  |  |  |  |  |  |  |  |  |  | 0.445 | 0.471 | 0.463 |  |  |  | 
4 | NCI-H2405 | 0.79 | 0.841 | 1.04 | 0.696 | 0.907 | 0.696 | 0.732 | 0.854 |  | 0.665 | 0.876 | 0.691 | 0.715 | 0.656 | 1.09 | 0.985 | 1.49 | 0.975
5 | PC-3 [JPC-3] | 1.03 | 1 | 0.944 | 1.01 | 0.983 | 0.866 |  | 0.91 |  | 0.738 | 0.926 | 0.903 | 0.952 | 0.893 | 0.809 | 0.887 | 1.14 | 0.808
6 | NCI-H1651 | 0.876 | 0.83 | 0.919 | 0.847 | 0.796 | 0.604 | 0.587 | 0.709 | 0.548 | 0.588 | 0.761 | 0.658 | 0.66 | 0.632 | 0.577 | 0.514 | 0.662 | 0.567
7 | HARA | 1.05 | 1.03 | 0.983 | 0.991 | 1.06 | 0.624 | 0.572 |  | 0.545 | 0.558 | 0.128 | 0.099 | 0.103 | 0.182 | 0.469 | 0.477 | 0.586 | 0.517
8 | NCI-H1650 | 0.898 | 1.24 | 0.942 | 0.922 | 0.56 | 0.448 | 0.393 | 0.462 | 0.454 | 0.266 | 0.501 | 0.395 | 0.341 | 0.388 | 0.685 | 0.586 | 0.581 | 0.611
9 | NCI-H1395 |  |  |  |  |  | 0.754 | 0.717 | 0.751 | 0.707 | 0.707 | 0.829 | 0.736 | 0.827 | 0.696 | 0.882 | 0.666 | 0.792 | 0.624
10 | NCI-H1993 | 1.25 | 0.931 | 0.899 | 0.84 | 0.867 | 0.612 | 0.609 | 0.628 | 0.655 | 0.464 | 0.567 | 0.581 | 0.727 | 0.629 | 0.864 | 0.675 | 0.787 | 0.705
11 | LU99A | 0.488 | 0.689 | 0.591 | 0.554 | 0.672 | 0.894 | 0.903 | 0.979 | 0.949 | 0.95 | 0.279 | 0.238 | 0.297 | 0.226 | 0.461 | 0.436 | 0.626 | 0.43
12 | NCI-H1355 | 1.05 | 1.06 | 1.18 | 1.06 | 0.983 | 0.382 | 0.328 | 0.316 | 0.343 | 0.336 | 0.613 | 0.499 | 0.658 | 0.462 | 0.679 | 0.596 | 0.691 | 0.609
13 | HCC-78 | 0.368 | 0.339 | 0.37 | 0.349 | 0.347 | 0.644 | 0.708 | 0.723 | 0.63 | 0.655 | 0.43 | 0.351 | 0.472 | 0.347 | 0.489 | 0.436 | 0.462 | 0.447
14 | NCI-H1563 | 0.883 | 0.979 | 0.956 | 0.828 | 0.998 |  |  |  |  |  |  |  |  |  |  |  |  | 
15 | HCC-15 | 0.823 | 0.898 | 0.793 | 0.817 | 0.905 | 0.614 | 0.625 | 0.615 | 0.659 | 0.568 | 0.428 | 0.394 | 0.365 | 0.228 | 0.746 | 0.761 | 0.954 | 0.899
16 | EKVX | 0.917 | 1.1 | 1.08 | 1.03 | 0.996 | 0.36 | 0.353 | 0.319 | 0.371 | 0.331 | 0.372 | 0.315 | 0.386 | 0.371 | 0.814 | 0.656 | 0.711 | 0.713
17 | NCI-H2126 | 1.02 | 1.07 | 1.04 | 0.99 | 0.988 | 0.625 | 0.603 | 0.543 | 0.582 | 0.564 | 0.939 | 0.811 | 0.944 | 0.75 | 0.716 | 0.712 | 0.931 | 0.75
18 | LK-2 | 0.292 | 0.238 | 0.207 | 0.223 | 0.257 | 0.277 | 0.232 | 0.287 | 0.325 | 0.272 | 0.19 | 0.178 | 0.152 | 0.179 | 0.346 | 0.339 | 0.354 | 0.311
19 | NCI-H1437 | 0.923 | 0.981 | 0.914 | 0.938 | 0.92 | 0.672 | 0.588 | 0.524 | 0.583 | 0.577 | 0.399 | 0.423 | 0.448 | 0.403 | 0.839 | 0.832 | 0.875 | 0.859
20 | COR-L23 | 0.564 | 0.597 | 0.717 | 0.713 | 0.336 | 0.407 | 0.404 | 0.469 | 0.379 | 0.281 | 0.253 | 0.196 | 0.172 | 0.179 | 0.443 | 0.486 | 0.411 | 0.267
